Measurements reported in patent publication US20230266303A1, “SYSTEM” (GTINVENT LIMITED, priority 2020, published 2023).
Several values for one entry are separate records, joined by “and”; a condition that tells them apart may be missing. Equal values may be shown once. Entries after “also recorded” stand apart in the source; their conditions may differ.

Test system: endogenous tau in dSH-SY5Y cells
Assay: Western blot of whole lysate and Triton X-100 sequential extraction of endogenous tau
Format: cell-based, human
Settings: 24 h
Experimental: Cells were detached from the coverslip by incubation in 0.25% trypsin-EDTA (Gibco™) and then mixed with 5 ml culture media. The cells were harvested by centrifugation at 500×g for 5 minutes and the supernatant was discarded. The cell pellet was resuspended in ice-cold PBS and centrifuged at 500×g at 4° C. Cells were lysed in 1% Triton lysis buffer (1% Triton X-100 (v/v), 150 mM NaCl and 50 mM Tris-HCl, pH 7.6) containing Halt™ protease inhibitors (Thermo Scientific) and phosphatase inhibitors (Thermo Scientific) for 15 minutes on ice. The samples were centrifuged at 16,000×g for 30 minutes at 4° C., and the supernatant was collected (Triton-soluble fraction). The pellet was resuspended in SDS lysis buffer (1% SDS (w/v), 150 mM NaCl and 50 mM Tris-HCl, pH 7.6) containing protease and phosphatase inhibitors. The samples were centrifuged at 16,000×g for 30 minutes at room temperature and the supernatant was collected (Triton-insoluble fraction). Protein concentration in the Triton-soluble fractions were determined using the Pierce™ BCA Protein Assay Kit (Thermo Scientific) according to the manufacturer's instructions.
For cell lysates, Triton-soluble protein (20 μg) and an equal volume of Triton-insoluble protein were each mixed with Læmmli sample buffer (4×) (Bio-Rad Laboratories) containing 5% (v/v) […] and heated at 95° C. for 5 minutes. For recombinant protein, 3 μg was mixed with sample buffer without reducing agent or boiling. All samples were centrifuged for five minutes at 1000×g and samples were loaded onto 4-20% Mini-PROTEAN® precast gels (Bio-Rad Laboratories) and run at 120 V for 1 h in Tris-glycine running buffer (25 mM Tris, 192 mM glycine, pH 8.3), or until the sample buffer reached the end of the gel. For Coomassie staining, the gel was washed three times in double distilled water for five minutes and stained with Imperial™ protein stain (Thermo Scientific) for 1 h and then destained overnight in double distilled water. The stained gel was scanned using an HP Photosmart C5280 scanner. For western blotting, the separated proteins on the gel were transferred to nitrocellulose membrane (0.45 μm) at 200 mA for 90 minutes. The membranes were blocked in 5% (w/v) bovine serum albumin (BSA) in Tris-buffered saline (50 mM Tris-HCl, pH7.4, 150 mM NaCl) containing 0.1% (v/v) Tween-20 (TBS-T) for 1 h rocking at room temperature. Membranes were incubated with primary antibodies diluted in 5% BSA in TBS-T overnight at 4° C. The following primary antibodies and dilutions were used; Anti-Tau (polyclonal, total tau) (Thermo Scientific) (1:2500), AT180 (anti-pT231) (Thermo Scientific) (1:1000), AT8 (anti-pS202-T205) (1:1000) (Thermo Scientific), anti-GAPDH (1:5000) (Abcam). […] Immunoreactive protein bands were detected using ECL substrate (Clarity™, Bio-Rad) and X-ray films were scanned using an HP Photosmart C5280 scanner. FIJI was used to quantify the bands in arbitrary densitometry units. The density of bands corresponding to full-length tau (50-70 kDa) were determined and normalised against amount of GAPDH. […] For the quantification of Triton-insoluble and soluble protein, the proportion of tau in the insoluble and soluble fraction was calculated using the equations insoluble/(soluble+insoluble) or soluble/(soluble+insoluble), respectively and expressed as a percentage of the respective soluble or insoluble control value. […]

[1] = whole lysate (RIPA), 1 μM soluble dGAE

dGAE: recombinant truncated tau, 95 residues fragment of Tau (2N4R), Ile-297 to Glu-391, SEQ ID NO: 4
proportion of AT180 tau in Triton-X 100 insoluble fraction, percentage of buffer-treated controls (soluble dGAE, buffer 100±0): 139.4±14.54% and 139.4±14.5% | proportion of AT180 tau in Triton-X 100 soluble fraction, percentage of buffer-treated controls (soluble dGAE, buffer 100±0): 82.98±5.48% and 83.0±5.5% | AT8 immunoreactivity vs buffer-treated control (western blot) [1]: no significant difference; also recorded: marginal increases | AT180 immunoreactivity vs buffer-treated control (western blot) [1]: no significant difference; also recorded: marginal increases | total tau immunoreactivity vs buffer-treated control (western blot) [1]: no significant difference; also recorded: no change
